Reference: PubChem BioAssay AID248 (DTP/NCI, 2004)
Values joined by “and” are separate entries in the source; they are usually repeats but may differ in a detail not shown here. Equal entries are not always repeated. Inconclusive results and toxic doses are left out. Rule as the data show it: active = T/C of 150% or more; inactive = T/C below 125%.

Test system: L1210 leukemia ip in BDF1 mice, survival T/C
Assay: NCI In Vivo Anticancer Drug Screen. Data for tumor model L1210 Leukemia (intraperitoneal) in B6D2F1 (BDF1) mice
Settings: endpoint: mean survival time, higher = longer survival
In short: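 Transplantable tumor model; survival measured in treated vs vehicle control mice. Value = treated/control.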

[1] = dose: 100.0 mg/kg/injection, schedule: Q04DX002 (ip), vehicle: saline with Tween-80
[2] = dose: 200.0 mg/kg/injection, schedule: Q04DX002 (ip), vehicle: saline with Tween-80
[3] = dose: 100.0 mg/kg/injection, schedule: Q04DX003 (ip), vehicle: saline
[4] = dose: 200.0 mg/kg/injection, schedule: Q04DX003 (ip), vehicle: saline
[5] = dose: 400.0 mg/kg/injection, schedule: Q04DX003 (ip), vehicle: saline
[6] = dose: 100.0 mg/kg/injection, schedule: Q04DX003 (ip), vehicle: Klucel (hydroxypropylcellulose) (HPC)
[7] = dose: 200.0 mg/kg/injection, schedule: Q04DX003 (ip), vehicle: Klucel (hydroxypropylcellulose) (HPC)
[8] = dose: 400.0 mg/kg/injection, schedule: Q04DX003 (ip), vehicle: Klucel (hydroxypropylcellulose) (HPC)
[9] = dose: 100.0 mg/kg/injection, schedule: Q04DX002 (ip), vehicle: Klucel (hydroxypropylcellulose) (HPC)
[10] = dose: 200.0 mg/kg/injection, schedule: Q04DX002 (ip), vehicle: Klucel (hydroxypropylcellulose) (HPC)
[11] = dose: 400.0 mg/kg/injection, schedule: Q04DX002 (ip), vehicle: Klucel (hydroxypropylcellulose) (HPC)
[12] = dose: 100.0 mg/kg/injection, schedule: Q01DX001 (ip), vehicle: carboxymethylcellulose (CMC)
[13] = dose: 200.0 mg/kg/injection, schedule: Q01DX001 (ip), vehicle: carboxymethylcellulose (CMC)
[14] = dose: 400.0 mg/kg/injection, schedule: Q01DX001 (ip), vehicle: carboxymethylcellulose (CMC)
[15] = dose: 50.0 mg/kg/injection, schedule: Q01DX001 (ip), vehicle: saline
[16] = dose: 100.0 mg/kg/injection, schedule: Q01DX001 (ip), vehicle: saline
[17] = dose: 200.0 mg/kg/injection, schedule: Q01DX001 (ip), vehicle: saline
[18] = dose: 400.0 mg/kg/injection, schedule: Q01DX001 (ip), vehicle: saline
[19] = dose: 100.0 mg/kg/injection, schedule: Q04DX003 (ip), vehicle: saline with Tween-80
[20] = dose: 200.0 mg/kg/injection, schedule: Q04DX003 (ip), vehicle: saline with Tween-80
[21] = dose: 400.0 mg/kg/injection, schedule: Q04DX003 (ip), vehicle: saline with Tween-80

Measured: T/C

CCOC(=O)c1ccc(N=NNc2ccc(C(=O)OCC)cc2)cc1
inactive: dose: 10.0 mg/kg/injection, schedule: Q01DX Z (ip), vehicle: other 95 % of control | dose: 30.0 mg/kg/injection, schedule: Q01DX Z (ip), vehicle: other 87 % of control

O=S1(=O)CCCCC1=C(c1ccccc1)c1ccccc1
inactive: [1] 89 % of control | [2] 89 % of control

NNc1c(C(N)=O)c2c(N)ncnc2n1C1OC(CO)C(O)C1O (configuration not stated)
inactive: dose: 100.0 mg/kg/injection, schedule: Q01DX005 (ip), vehicle: saline 96 % of control | dose: 200.0 mg/kg/injection, schedule: Q01DX005 (ip), vehicle: saline 100 % of control

CCOC(=O)C(=CNc1cnc(SC)[nH]c1=O)C(=O)OCC
inactive: [3] 91 % of control | [4] 93 % of control | [5] 89 % of control

C1=NOC2c3ccc4ccccc4c3CCC12 (configuration not stated)
inactive: dose: 100.0 mg/kg/injection, schedule: Q01DX009 (ip), vehicle: Klucel (hydroxypropylcellulose) (HPC) 95 % of control | dose: 200.0 mg/kg/injection, schedule: Q01DX009 (ip), vehicle: Klucel (hydroxypropylcellulose) (HPC) 93 % of control | dose: 400.0 mg/kg/injection, schedule: Q01DX009 (ip), vehicle: Klucel (hydroxypropylcellulose) (HPC) 93 % of control

CC(=O)NC(=O)Nc1ccccc1
inactive: [6] 94 % of control | [7] 103 % of control | [8] 95 % of control

CCCCSCC(N)C(=O)OC (configuration not stated)
inactive: dose: 100.0 mg/kg/injection, schedule: Q01DX009 (ip), vehicle: saline 96 % of control | [3] 106 % of control | dose: 200.0 mg/kg/injection, schedule: Q01DX009 (ip), vehicle: saline 101 % of control | [4] 100 % of control | dose: 400.0 mg/kg/injection, schedule: Q01DX009 (ip), vehicle: saline 112 % of control | [5] 97 % of control

N#C/C(=C\C1CCCC([N+](=O)[O-])C1)C1CCC([N+](=O)[O-])CC1 (configuration not stated)
inactive: [9] 122 % of control | [10] 100 % of control | [11] 100 % of control

Cc1ccc(O)c(C(=O)c2ccccc2)c1
inactive: dose: 50.0 mg/kg/injection, schedule: Q01DX001 (ip), vehicle: carboxymethylcellulose (CMC) 96 % of control | [12] 99 % of control | [13] 89 % of control | [14] 94 % of control

CCOC1(OCC)C([N+](=O)[O-])=CC(=[N+]([O-])O)C=C1[N+](=O)[O-]
inactive: [15] 102 % of control | [16] 98 % of control | [17] 98 % of control | [18] 101 % of control

CC(=O)C1=C(c2ccc([N+](=O)[O-])cc2)NC(=O)NC1c1ccco1 (configuration not stated)
inactive: [19] 98 % of control | [20] 93 % of control | [21] 100 % of control

CC(=O)Oc1c(N)c(C)cc(C)c1F
inactive: dose: 6.0 mg/kg/injection, schedule: Q01DX001 (ip), vehicle: Klucel (hydroxypropylcellulose) (HPC) 92 % of control | dose: 12.0 mg/kg/injection, schedule: Q01DX001 (ip), vehicle: Klucel (hydroxypropylcellulose) (HPC) 92 % of control | dose: 25.0 mg/kg/injection, schedule: Q01DX001 (ip), vehicle: Klucel (hydroxypropylcellulose) (HPC) 110 % of control

Cc1ccc(C)c2c1c1ccccc1n2N=O
inactive: [15] 97 % of control | [16] 100 % of control | [17] 100 % of control | [18] 114 % of control

COC(=O)c1cc(C)cc(N(c2ccccc2[N+](=O)[O-])S(=O)(=O)c2ccc(C)cc2)c1C
inactive: [12] 96 % of control | [13] 104 % of control | [14] 98 % of control

C=C(Cl)CN1C(=O)c2ccccc2C1=O
inactive: [9] 93 % of control | [10] 93 % of control | [11] 101 % of control

Nc1cc(Cl)ccc1[N+](=O)[O-]
inactive: [3] 103 % of control | [4] 95 % of control | [5] 96 % of control

SC1(SC2(S)CCCCC2)CCCCC1
inactive: [19] 97 % of control | [20] 101 % of control | [21] 113 % of control

COC(=O)c1ccc(C(F)(F)F)cc1O
inactive: [6] 97 % of control | [7] 100 % of control | [8] 108 % of control

CCOC(C)C(/C=N/NC(N)=S)=NNC(N)=S (configuration not stated)
inactive: dose: 15.0 mg/kg/injection, schedule: Q01DX010 (ip), vehicle: saline 95 % of control | dose: 15.0 mg/kg/injection, schedule: Q01DX Z (ip), vehicle: carboxymethylcellulose (CMC) 101 % of control | dose: 30.0 mg/kg/injection, schedule: Q01DX010 (ip), vehicle: saline 89 % of control | dose: 30.0 mg/kg/injection, schedule: Q01DX Z (ip), vehicle: carboxymethylcellulose (CMC) 95 % of control | dose: 60.0 mg/kg/injection, schedule: Q01DX010 (ip), vehicle: saline 92 % of control | dose: 60.0 mg/kg/injection, schedule: Q01DX Z (ip), vehicle: carboxymethylcellulose (CMC) 100 % of control and 102 % of control | dose: 60.0 mg/kg/injection, schedule: Q01DX Z (oral), vehicle: carboxymethylcellulose (CMC) 100 % of control | dose: 120.0 mg/kg/injection, schedule: Q01DX Z (ip), vehicle: carboxymethylcellulose (CMC) 93 % of control and 103 % of control | dose: 120.0 mg/kg/injection, schedule: Q01DX Z (oral), vehicle: carboxymethylcellulose (CMC) 106 % of control | dose: 240.0 mg/kg/injection, schedule: Q01DX Z (oral), vehicle: carboxymethylcellulose (CMC) 93 % of control

CC(=O)Nc1ccc(S(=O)(=O)Nc2ccc(C(=O)O)cc2)cc1
inactive: [6] 100 % of control | [7] 87 % of control | [8] 92 % of control

CC(Oc1ccc([N+](=O)[O-])cc1Cl)C(=O)Nc1ccc(S(=O)(=O)F)cc1 (configuration not stated)
inactive: [6] 100 % of control | [7] 100 % of control | [8] 92 % of control

Cc1nc2c([N+](=O)[O-])cccn2n1
inactive: dose: 100.0 mg/kg/injection, schedule: Q01DX001 (ip), vehicle: acetone 98 % of control

CC12CCC3C(C1)C(C(=O)O2)C(=O)OC3(C)C (configuration not stated)
inactive: dose: 75.0 mg/kg/injection, schedule: Q01DX009 (ip), vehicle: Klucel (hydroxypropylcellulose) (HPC) 99 % of control | dose: 150.0 mg/kg/injection, schedule: Q01DX009 (ip), vehicle: Klucel (hydroxypropylcellulose) (HPC) 101 % of control

O=C(O)c1ccc(N=Cc2cccc([N+](=O)[O-])c2)cc1
inactive: dose: 100.0 mg/kg/injection, schedule: Q01DX001 (ip), vehicle: saline with Tween-80 106 % of control | dose: 100.0 mg/kg/injection, schedule: Q01DX009 (ip), vehicle: saline with Tween-80 100 % of control and 91 % of control | [1] 97 % of control and 91 % of control | dose: 200.0 mg/kg/injection, schedule: Q01DX001 (ip), vehicle: saline with Tween-80 92 % of control | dose: 200.0 mg/kg/injection, schedule: Q01DX009 (ip), vehicle: saline with Tween-80 98 % of control and 122 % of control | [2] 93 % of control and 91 % of control | dose: 400.0 mg/kg/injection, schedule: Q01DX001 (ip), vehicle: saline with Tween-80 95 % of control | dose: 400.0 mg/kg/injection, schedule: Q01DX009 (ip), vehicle: saline with Tween-80 102 % of control and 88 % of control | dose: 400.0 mg/kg/injection, schedule: Q04DX002 (ip), vehicle: saline with Tween-80 93 % of control and 88 % of control

C=CC1CN2CCC1CC2C(=O)c1ccnc2ccccc12 (configuration not stated)
inactive: [15] 101 % of control | [16] 104 % of control | [17] 106 % of control | [18] 98 % of control

CCOC(=O)C1C(c2ccccc2)C1c1ccc(C)cc1 (configuration not stated)
inactive: dose: 25.0 mg/kg/injection, schedule: Q04DX002 (ip), vehicle: saline with Tween-80 103 % of control | dose: 50.0 mg/kg/injection, schedule: Q04DX002 (ip), vehicle: saline with Tween-80 103 % of control | [1] 98 % of control

c1ccc(C2C(c3ccccc3)N2CCNC2=NCCN2)cc1 (configuration not stated)
inactive: dose: 12.5 mg/kg/injection, schedule: Q01DX009 (ip), vehicle: Klucel (hydroxypropylcellulose) (HPC) 91 % of control | dose: 25.0 mg/kg/injection, schedule: Q01DX009 (ip), vehicle: Klucel (hydroxypropylcellulose) (HPC) 102 % of control | dose: 50.0 mg/kg/injection, schedule: Q01DX009 (ip), vehicle: Klucel (hydroxypropylcellulose) (HPC) 91 % of control

Cn1c2ccccc2c2nn3cnnc3nc21
inactive: [1] 108 % of control | [2] 120 % of control
